The source of these data is patent US12454531B2, “Substituted piperazine derivatives useful as T cell activators” (BRISTOL-MYERS SQUIBB COMPANY, priority 2019, dated 2025).

For orientation: EC50 means the midpoint of the concentration-response curve.

SMILES strings stand for the structures.

For the first test, the system named is Human whole blood IFN-γ. Briefly: Assay 10: Human Whole Blood IFN-γ Assay. The class given is cell-based. To be noted: Homo sapiens, 24 h, anti-CD3 and anti-CD28 stimulation, 100% = 3 μM reference compound, read-out: INFg Whole Blood Normalized Agonist EC50. Here is the method: Assay 10: Human Whole Blood IFN-γ Assay
Human venous whole blood (22.5 μL per well), obtained from healthy donors, was pre-treated with compounds for one hour at 37° C. in a humidified 95% air/5% CO2 incubator. The blood was stimulated with 2.5 μL anti-human CD3 and anti-CD28 mAb at a final concentration of 1 μg/mL each for 24 hours at 37° C. IFN-7 in the supernatants was measured using AlphLISA kit (Cat #AL217).
On to `C[C@@H]1CN(c2cc(=O)n(C)c3ccc(C#N)nc23)[C@@H](C)CN1C(C(=O)O)c1ccc(F)cc1` (single isomer, unassigned) [Example 10], for which the half-maximal effective concentration (EC50) is 20 µM.

Consider `CC(C(=O)NC1CCCC1)N1C[C@H](C)N(c2cc(=O)n(C)c3ccc(C#N)nc23)C[C@H]1C` (single isomer, unassigned) [Example 43], for which the concentration giving a half-maximal response (EC50) turned out to be 20 µM.

For the molecule `C[C@@H]1CN(c2cc(=O)n(C)c3ccc(C#N)nc23)[C@@H](C)CN1C(c1ccc(F)cc1)P(C)(C)=O` (single isomer, unassigned) [Example 49], the 50% effective concentration (EC50) amounted to 20 µM.

As to `COC(=O)C(c1ccc(F)cc1)N1C[C@H](C)N(c2cc(=O)n(C)c3ccc(C#N)nc23)C[C@H]1C` (stereo partly drawn) [Example 7, Methyl 2-((2R,5S)-4-(6-cyano-1-methyl-2-oxo-1,2-dihydro-1,5-naphthyridin-4-yl)-2,5-dimethylpiperazin-1-yl)-2-(4-fluorophenyl)acetate], the 50% effective concentration (EC50) worked out at 0.1 µM.

`C[C@@H]1CN(c2cc(=O)n(C)c3ccc(C#N)nc23)[C@@H](C)CN1C(C(N)=O)c1ccc(F)cc1` (stereo partly drawn) [Example 13, 2-((2R,5S)-4-(6-cyano-1-methyl-2-oxo-1,2-dihydro-1,5-naphthyridin-4-yl)-2,5-dimethylpiperazin-1-yl)-2-(4-fluorophenyl)acetamide]: the EC50 came to 20 µM.

On to `C[C@@H]1CN(c2cc(=O)n(C)c3ccc(C#N)nc23)[C@@H](C)CN1C(C(=O)N(C)C)c1ccc(F)cc1` (stereo partly drawn) [Example 23, 2-((2R,5S)-4-(6-cyano-1-methyl-2-oxo-1,2-dihydro-1,5-naphthyridin-4-yl)-2,5-dimethylpiperazin-1-yl)-2-(4-fluorophenyl)-N,N-dimethylacetamide], for which the 50% effective concentration (EC50) amounted to 20 µM.

Consider `C[C@@H]1CN(c2cc(=O)n(C)c3ccc(C#N)nc23)[C@@H](C)CN1C(C(=O)NCCO)c1ccc(F)cc1` (stereo partly drawn) [Example 27, 2-((2R,5S)-4-(6-cyano-1-methyl-2-oxo-1,2-dihydro-1,5-naphthyridin-4-yl)-2,5-dimethylpiperazin-1-yl)-2-(4-fluorophenyl)-N-(2-hydroxyethyl)acetamide], for which the EC50 is 1.54 µM.

For the molecule `CC(C(=O)Nc1cnn(C)c1)N1C[C@H](C)N(c2cc(=O)n(C)c3ccc(C#N)nc23)C[C@H]1C` (stereo partly drawn) [Example 45, 2-((2R,5S)-4-(6-cyano-1-methyl-2-oxo-1,2-dihydro-1,5-naphthyridin-4-yl)-2,5-dimethylpiperazin-1-yl)-N-(1-methyl-1H-pyrazol-4-yl)propanamide], the EC50 stood at 20 µM.

As to `CC(C(=O)NC1CC1)N1C[C@H](C)N(c2cc(=O)n(C)c3ccc(C#N)nc23)C[C@H]1C` (stereo partly drawn) [Example 47, 2-((2R,5S)-4-(6-cyano-1-methyl-2-oxo-1,2-dihydro-1,5-naphthyridin-4-yl)-2,5-dimethylpiperazin-1-yl)-N-cyclopropylpropanamide], the concentration for a half-maximal effect (EC50) turned out to be 20 µM.

The same test, now with this note: anti-CD3 and anti-CD28 stimulation, 24 hours, 100% = 3 μM reference compound, read-out: INFg Whole Blood Normalized Agonist EC50.
With `CC(C)OC(=O)C(c1ccc(F)cc1)N1C[C@H](C)N(c2cc(=O)n(C)c3ccc(C#N)nc23)C[C@H]1C` (single isomer, unassigned) [Example 1], the concentration for a half-maximal effect (EC50) is 0.61 µM.

As to `COC(=O)CC(c1ccc(F)cc1)N1C[C@H](C)N(c2cc(=O)n(C)c3ccc(C#N)nc23)C[C@H]1C` (single isomer, unassigned) [Example 31], the concentration for a half-maximal effect (EC50) was found to be 0.15 µM.

On to `COC(=O)CC(c1ccc(F)cc1)N1C[C@H](C)N(c2cc(=O)n(C)c3ccc(C#N)nc23)C[C@H]1C` (single isomer, unassigned) [Example 32], for which the EC50 is 1.81 µM.

In the case of `CC(C(=O)NC1CCCC1)N1C[C@H](C)N(c2cc(=O)n(C)c3ccc(C#N)nc23)C[C@H]1C` (single isomer, unassigned) [Example 44], the EC50 worked out at 20 µM.

Take `C[C@@H]1CN(c2cc(=O)n(C)c3ccc(C#N)nc23)[C@@H](C)CN1C(c1ccc(F)cc1)P(C)(C)=O` (single isomer, unassigned) [Example 50]: the EC50 stood at 20 µM.

On to `C[C@@H]1CN(c2cc(=O)n(C)c3ccc(C#N)nc23)[C@@H](C)CN1C(C(N)=O)c1ccc(F)cc1` (stereo partly drawn) [Example 14, 2-((2R,5S)-4-(6-cyano-1-methyl-2-oxo-1,2-dihydro-1,5-naphthyridin-4-yl)-2,5-dimethylpiperazin-1-yl)-2-(4-fluorophenyl)acetamide], for which the EC50 was 20 µM.

For the molecule `C[C@@H]1CN(c2cc(=O)n(C)c3ccc(C#N)nc23)[C@@H](C)CN1C(C(=O)N1CCCC1)c1ccc(F)cc1` (stereo partly drawn) [Example 21, 8-((2S,5R)-4-(1-(4-fluorophenyl)-2-oxo-2-(pyrrolidin-1-yl)ethyl)-2,5-dimethylpiperazin-1-yl)-5-methyl-6-oxo-5,6-dihydro-1,5-naphthyridine-2-carbonitrile], the 50% effective concentration (EC50) was found to be 2.56 µM.

On to `C[C@@H]1CN(c2cc(=O)n(C)c3ccc(C#N)nc23)[C@@H](C)CN1C(C(=O)N1CCCC1)c1ccc(F)cc1` (stereo partly drawn) [Example 22, 8-((2S,5R)-4-(1-(4-fluorophenyl)-2-oxo-2-(pyrrolidin-1-yl)ethyl)-2,5-dimethylpiperazin-1-yl)-5-methyl-6-oxo-5,6-dihydro-1,5-naphthyridine-2-carbonitrile], for which the EC50 stood at 9.03 µM.

Turning to `C[C@@H]1CN(c2cc(=O)n(C)c3ccc(C#N)nc23)[C@@H](C)CN1C(C(=O)N(C)C)c1ccc(F)cc1` (stereo partly drawn) [Example 24, 2-((2R,5S)-4-(6-cyano-1-methyl-2-oxo-1,2-dihydro-1,5-naphthyridin-4-yl)-2,5-dimethylpiperazin-1-yl)-2-(4-fluorophenyl)-N,N-dimethylacetamide], the EC50 was 20 µM.

Take `CNC(=O)C(c1ccc(F)cc1)N1C[C@H](C)N(c2cc(=O)n(C)c3ccc(C#N)nc23)C[C@H]1C` (stereo partly drawn) [Example 25, 2-((2R,5S)-4-(6-cyano-1-methyl-2-oxo-1,2-dihydro-1,5-naphthyridin-4-yl)-2,5-dimethylpiperazin-1-yl)-2-(4-fluorophenyl)-N-methylacetamide]: the EC50 was found to be 5.12 µM.

For `CC(C(=O)Nc1cnn(C)c1)N1C[C@H](C)N(c2cc(=O)n(C)c3ccc(C#N)nc23)C[C@H]1C` (stereo partly drawn) [Example 46, 2-((2R,5S)-4-(6-cyano-1-methyl-2-oxo-1,2-dihydro-1,5-naphthyridin-4-yl)-2,5-dimethylpiperazin-1-yl)-N-(1-methyl-1H-pyrazol-4-yl)propanamide], the EC50 worked out at 20 µM.

For `CC(C(=O)NC1CC1)N1C[C@H](C)N(c2cc(=O)n(C)c3ccc(C#N)nc23)C[C@H]1C` (stereo partly drawn) [Example 48, 2-((2R,5S)-4-(6-cyano-1-methyl-2-oxo-1,2-dihydro-1,5-naphthyridin-4-yl)-2,5-dimethylpiperazin-1-yl)-N-cyclopropylpropanamide], the EC50 was found to be 20 µM.
